Results from ChEMBL document CHEMBL1149472, “Homobivalent quinazolinimines as novel nanomolar inhibitors of cholinesterases with dirigible selectivity toward butyrylcholinesterase” (J Med Chem, 2006).

Tests used:
[1] = Selectivity for horse serum BChE over electric eel AChE
Acetylcholinesterase = Acetylcholinesterase (Electrophorus electricus, UniProt O42275); test: Inhibition of electric eel AChE
Butyrylcholinesterase = Butyrylcholinesterase (Equus caballus, UniProt Q9N1N9); test: Inhibition of horse serum BChE
[2] = read-out: -Log IC50 (converted)

Chain of Acetylcholinesterase (O42275 whole entry): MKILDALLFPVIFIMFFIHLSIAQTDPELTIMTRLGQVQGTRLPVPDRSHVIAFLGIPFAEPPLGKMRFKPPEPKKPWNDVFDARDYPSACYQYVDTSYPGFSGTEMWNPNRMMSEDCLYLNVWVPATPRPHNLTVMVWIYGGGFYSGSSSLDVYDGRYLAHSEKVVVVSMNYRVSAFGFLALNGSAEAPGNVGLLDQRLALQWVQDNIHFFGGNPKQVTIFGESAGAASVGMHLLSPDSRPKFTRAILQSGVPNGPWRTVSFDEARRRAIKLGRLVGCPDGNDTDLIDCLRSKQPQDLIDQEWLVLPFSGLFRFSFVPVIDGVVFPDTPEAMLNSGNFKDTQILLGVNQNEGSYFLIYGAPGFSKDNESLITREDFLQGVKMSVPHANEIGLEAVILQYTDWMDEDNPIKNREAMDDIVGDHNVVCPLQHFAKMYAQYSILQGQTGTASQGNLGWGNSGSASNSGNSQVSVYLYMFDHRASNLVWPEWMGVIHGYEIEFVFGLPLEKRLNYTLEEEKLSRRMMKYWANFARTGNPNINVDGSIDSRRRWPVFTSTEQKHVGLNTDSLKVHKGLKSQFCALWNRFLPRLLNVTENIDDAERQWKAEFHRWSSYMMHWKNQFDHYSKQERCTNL
Chain of Butyrylcholinesterase (Q9N1N9 whole entry): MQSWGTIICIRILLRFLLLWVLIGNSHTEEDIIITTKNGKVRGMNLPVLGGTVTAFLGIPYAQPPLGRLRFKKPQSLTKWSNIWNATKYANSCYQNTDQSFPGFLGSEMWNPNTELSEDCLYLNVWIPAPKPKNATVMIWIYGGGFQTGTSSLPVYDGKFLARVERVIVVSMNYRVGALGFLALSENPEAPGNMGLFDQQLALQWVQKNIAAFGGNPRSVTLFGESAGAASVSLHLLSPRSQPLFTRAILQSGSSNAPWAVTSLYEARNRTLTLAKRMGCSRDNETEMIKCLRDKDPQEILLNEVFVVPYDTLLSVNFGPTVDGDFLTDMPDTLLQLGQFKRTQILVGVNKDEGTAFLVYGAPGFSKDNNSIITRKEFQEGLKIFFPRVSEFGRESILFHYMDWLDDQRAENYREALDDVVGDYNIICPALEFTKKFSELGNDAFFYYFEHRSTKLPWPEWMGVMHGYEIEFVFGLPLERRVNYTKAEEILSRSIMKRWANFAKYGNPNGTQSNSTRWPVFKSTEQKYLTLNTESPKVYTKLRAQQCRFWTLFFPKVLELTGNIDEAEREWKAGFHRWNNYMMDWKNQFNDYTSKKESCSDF

SMILES	Ratio IC50 [1]	IC50 (Acetylcholinesterase) [nM]	IC50 (Butyrylcholinesterase; read-out: IC50) [nM]	IC50 (Butyrylcholinesterase; [2]) [nM]
c1ccc2/c(=N/CCCCCCC/N=c3\c4ccccc4nc4n3CCC4)n3c(nc2c1)CCC3	0.9	79	88	
CCCC/N=c1/c2ccc(Cl)cc2nc2n1CCC2	1.7		2300	
N=c1c2ccccc2nc2n1CCC2	1.8	13200	7200	716
c1ccc2/c(=N/CCCCCCCC/N=c3/c4ccccc4nc4n3CCC4)n3c(nc2c1)CCC3	12	58	4.8	
c1ccc2/c(=N/CCCCCCCC/N=c3/c4ccccc4nc4n3CCCC4)n3c(nc2c1)CCCC3	4.9	37	7.6	
Clc1ccc2/c(=N/CCCCCCC/N=c3\c4ccc(Cl)cc4nc4n3CCC4)n3c(nc2c1)CCC3	1	59	61	
Clc1ccc2c(c1)N=C1CCCN1C2NCCCCCCCC/N=c1/c2ccc(Cl)cc2nc2n1CCC2 (stereo unspecified)	1.1	50.2	45.4	
CC(=O)/N=c1/c2ccccc2nc2n1CCC2	0.6	115000	204000	428000
N=c1c2ccccc2nc2n1CCCCCC2	4.9	14600	3000	
c1ccc2/c(=N/CCCCCCCC/N=c3/c4ccccc4nc4n3CCCCCC4)n3c(nc2c1)CCCCCC3	189	14400	76	
c1ccc2/c(=N/CCCCCCCC/N=c3/c4ccccc4nc4n3CCCCC4)n3c(nc2c1)CCCCC3	98	1280	13	
CCCC/N=c1/c2ccccc2nc2n1CCC2	1.7	9500	5500	
c1ccc2/c(=N/CCCCCCC/N=c3\c4ccccc4nc4n3CCCCCC4)n3c(nc2c1)CCCCCC3	2.4	65	27	
c1ccc2/c(=N/CCCCCCC/N=c3\c4ccccc4nc4n3CCCC4)n3c(nc2c1)CCCC3	9	77	8.5	
c1ccc2/c(=N/CCCCCCC/N=c3\c4ccccc4nc4n3CCCCC4)n3c(nc2c1)CCCCC3	1.6	40	24	
